We go through 3 compounds from US7273886B2 (Genentech, Inc., priority 2003, dated 2007).

One series is described as follows: Solubility in water. In kind it is physicochemical. Conditions: aqueous buffer, thermodynamic from solid, amorphous solid.
The next series concerns the target Trypsin. As to the kind of experiment: Trypsin inhibition (Ki). In kind it is biochemical.
The next series deals with Chymotrypsin. As to the kind of experiment: Chymotrypsin inhibition (Ki). The format is biochemical.
Another series has as its target T1, HGFA (Homo sapiens, UniProt Q04756).
T1 sequence (Q04756 373-655): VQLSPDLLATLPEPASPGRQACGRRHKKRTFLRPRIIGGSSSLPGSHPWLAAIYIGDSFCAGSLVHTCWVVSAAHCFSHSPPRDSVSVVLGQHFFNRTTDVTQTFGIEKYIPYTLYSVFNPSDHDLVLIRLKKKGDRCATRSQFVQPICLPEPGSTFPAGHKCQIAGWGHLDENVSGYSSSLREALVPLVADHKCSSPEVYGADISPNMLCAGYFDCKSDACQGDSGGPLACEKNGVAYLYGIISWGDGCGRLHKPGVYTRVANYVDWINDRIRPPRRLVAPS
The experiment in a line: HGFA inhibition (Ki). In kind it is biochemical.

In a further series the target is T2, Thrombin (Homo sapiens, UniProt P00734).
T2 construct: rapidly converts prothrombin to thrombin; purchased Hematologic Technologies
As to the kind of experiment: Thrombin assay (Ki). The format is biochemical. The method, then: (§1) Factor Xa, Thrombin, and Plasma Kallikrein Assays
(§2) These procedures can be used to determine the constant of inhibition (Ki) for a sample compound of the invention.
(§3) • Assay Buffer: 100 mM Hepes pH 7.8, 140 mM NaCl, 0.1% PEG-8000, 0.02% Tween-80 • Coagulation human Factor Xa, Thrombin, or Plasma Kallikrein (Hematologic Technologies) • Factor: Dilute to 0.45 μg/mL (9.8 nM) in assay buffer. • Substrate: S-2222, S2366 or S2302—(See below—Chromogenix Inc,) Reconstitute at 5 mM in H2O. Dilute to 1.5 mM in assay buffer prior to use. • Samples: Dilute samples to 3% DMSO in assay buffer. Procedure: • 1. Add 50 μL sample to each well. • 2. Add 50 μL appropriately diluted coagulation factor to each well. • 3. Incubate for 5 minutes at room temperature with gentle agitation. • 4. Add 50 μL appropriately diluted substrate to each well. • 5. Agitate plate for 20–25 sec. • 6. Monitor absorbance at 405 nm every 10 sec for a total of 5 minutes at room temperature. • 7. Calculate Vmax over 10 points. Assay—Enzyme, Substrate and Final Concentrations

A further series addresses Urokinase (Homo sapiens, UniProt P00749). The experiment in a line: Urokinase inhibition (Ki). In kind it is biochemical.
The target in the next series is T3, XIIA (Homo sapiens, UniProt P00748).
T3 sequence (P00748 373-615 limits assumed): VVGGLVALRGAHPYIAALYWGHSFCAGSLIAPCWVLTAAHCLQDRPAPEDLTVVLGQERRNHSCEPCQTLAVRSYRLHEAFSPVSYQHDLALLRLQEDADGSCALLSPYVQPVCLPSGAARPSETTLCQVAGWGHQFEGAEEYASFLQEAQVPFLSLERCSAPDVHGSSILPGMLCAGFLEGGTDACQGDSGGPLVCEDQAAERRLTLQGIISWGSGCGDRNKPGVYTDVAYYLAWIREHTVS
As to the kind of experiment: XIIA inhibition (Ki). The format is biochemical.

The next series concerns the target T4, TFVIIa (Homo sapiens, UniProt P08709).
T4 construct: recombinant human factor VIIa; NB #25942–16
As to the kind of experiment: Tissue Factor/Factor VIIa antagonist assay (Ki). The format is biochemical. As for the experimental part:
Tissue Factor/Factor VIIa Antagonist Assay
This procedure can be used to determine the constant of inhibition (Ki) for a sample compound of the invention.
• Assay Buffer: 100 mM Hepes pH 7.8, 140 mM NaCl, 0.1% PEG-8000, 0.02% Tween-80, 5 mM CaCl2 Coagulation • Factor: recombinant human factor VIIa (NB #25942–16) • Cofactor: soluble Tissue Factor (1-219) • Substrate: Chromozym-tPA (Boehringer Mannheim, Cat. #1093 037) Reconstitute at 20 mM in H2O. Dilute to 4 mM in assay buffer with CaCl2 prior to use. • Samples: Dilute samples to 3% DMSO in assay buffer (lacking CaCl2). Procedure: • 1. Prepare a solution of 2 μg/mL (90 nM) tissue factor and 1.5 μg/mL (30 nM) factor VIIa in assay buffer with CaCl2. • 2. Incubate for 15 minutes at room temperature. • 3. Add 50 μL sample to each well. • 4. Add 50 μL tissue factor/factor VIIa solution to each well. • 5. Incubate for 15 minutes at room temperature with gentle agitation. • 6. Add 50 μL substrate to each well. • 7. Agitate plate for 20–25 sec. • 8. Monitor absorbance at 405 nm every 10 sec for a total of 5 minutes at room temperature. • 9. Calculate Vmax over 10 points.

In series [1] the target is APC (Homo sapiens, UniProt P04070). The experiment in a line: APC inhibition (Ki). In kind it is biochemical. Conditions: APC.
In series [2] the test system is APC. As to the kind of experiment: APC inhibition (Ki). The format is biochemical. The note with it: APC relative to TFVIIa.
Another series addresses tPA (Homo sapiens, UniProt P00750). The experiment in a line: tPA inhibition (Ki). The format is biochemical.
The target of a further series is T5, F. Xa (Homo sapiens, UniProt P00742).
T5 construct: This complex converts factor X to Xa; purchased Hematologic Technologies
As to the kind of experiment: Factor Xa assay (Ki). In kind it is biochemical. As for the experimental part: as §1, §2, §3

The target in a further series is Acetylcholinesterase (Homo sapiens, UniProt P22303). The experiment in a line: Acetylcholinesterase inhibition (Ki). In kind it is biochemical.
The target in the next series is Plasmin (Homo sapiens, UniProt P00747). The experiment in a line: Plasmin inhibition (Ki). In kind it is biochemical.
The next series addresses T6, Complement CS1 (Homo sapiens, UniProt P09871).
T6 sequence (P09871 16-688): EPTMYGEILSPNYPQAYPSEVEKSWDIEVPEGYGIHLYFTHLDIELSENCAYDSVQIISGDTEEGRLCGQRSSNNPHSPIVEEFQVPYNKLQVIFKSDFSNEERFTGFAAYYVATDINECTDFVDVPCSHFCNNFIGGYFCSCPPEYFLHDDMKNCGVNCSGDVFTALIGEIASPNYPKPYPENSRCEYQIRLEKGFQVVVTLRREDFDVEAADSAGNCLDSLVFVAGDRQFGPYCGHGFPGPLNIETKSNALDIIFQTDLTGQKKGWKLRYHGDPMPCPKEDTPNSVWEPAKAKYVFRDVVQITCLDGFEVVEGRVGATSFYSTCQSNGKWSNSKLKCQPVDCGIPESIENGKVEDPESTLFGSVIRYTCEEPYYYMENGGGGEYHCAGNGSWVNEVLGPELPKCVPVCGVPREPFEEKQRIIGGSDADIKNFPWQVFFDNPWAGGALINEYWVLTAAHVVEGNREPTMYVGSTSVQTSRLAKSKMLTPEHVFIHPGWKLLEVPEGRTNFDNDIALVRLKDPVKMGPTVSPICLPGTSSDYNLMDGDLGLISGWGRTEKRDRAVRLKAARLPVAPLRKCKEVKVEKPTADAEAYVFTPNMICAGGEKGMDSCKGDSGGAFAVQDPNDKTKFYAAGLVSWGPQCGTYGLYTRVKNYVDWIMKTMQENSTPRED
As to the kind of experiment: Complement CS1 inhibition (Ki). In kind it is biochemical.

Series [3] deals with XIA. The experiment in a line: XIA inhibition (Ki). The format is biochemical. Conditions: XIA relative to TFVIIa.
In series [4] the target is XIA (Homo sapiens, UniProt P03951). The experiment in a line: XIA inhibition (Ki). The format is biochemical. The note with it: XIA.
In another series the target is T7, Plasma Kallikrein (Homo sapiens, UniProt P03952).
T7 construct: human Factor Xa, Thrombin, or Plasma Kallikrein (Hematologic Technologies); purchased Hematologic Technologies
The experiment in a line: Plasma Kallikrein assay (Ki). The format is biochemical. The method, then: as §1, §2, §3

Series [5] can be described thus: Plasma concentrations following IV bolus administration in rhesus monkey. The note with it: IV bolus 1 mg/kg. In kind it is in vivo. As for the experimental part:
Dosing of Benzofuran Compounds in Rhesus Monkeys
IV Bolus: Inhibitors were formulated in a 1 mg/ml solution of 20–30% PEG 400/sterile water. The drug was administered as an IV bolus over 1 minute at 1 mg/kg. 1.0 ml blood samples were collected at each time point on 20 μl 8.5% K2EDTA. Blood samples for the IV dosed animals were be collected from a short, large bore catheter (needle <25G) placed in the saphenous or cephalic vein for all time points up to 3 hours after dosing. The catheters were then removed, the animals returned to their cages and latter samples collected by venipuncture. Venipuncture samples can be obtained from any superficial vein that can easily be compressed (e.g. cephalic, or saphenous but not from the femoral plexus). Sample time points were taken generally at the following times: pre-dose, 2, 5, 10, 20, 30, 40, 60, 90, 120, 150, 180 minutes and at 4, 6, 12, 24, and 48 hours.

≈ marks a conversion by molar mass, not a printed value.

T7 sequence (P03952 20-390 limits assumed): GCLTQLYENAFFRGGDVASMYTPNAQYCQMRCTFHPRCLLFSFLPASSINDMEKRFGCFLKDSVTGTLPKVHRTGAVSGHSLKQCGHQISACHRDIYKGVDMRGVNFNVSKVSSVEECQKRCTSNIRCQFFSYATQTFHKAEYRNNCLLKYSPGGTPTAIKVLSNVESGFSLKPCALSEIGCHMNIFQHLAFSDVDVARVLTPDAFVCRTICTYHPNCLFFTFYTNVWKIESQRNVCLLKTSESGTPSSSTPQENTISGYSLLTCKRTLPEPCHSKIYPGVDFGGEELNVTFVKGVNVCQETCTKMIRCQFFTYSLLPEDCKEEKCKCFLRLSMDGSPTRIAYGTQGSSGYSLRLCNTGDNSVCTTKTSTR
T7 sequence (P03952 391-638 limits assumed): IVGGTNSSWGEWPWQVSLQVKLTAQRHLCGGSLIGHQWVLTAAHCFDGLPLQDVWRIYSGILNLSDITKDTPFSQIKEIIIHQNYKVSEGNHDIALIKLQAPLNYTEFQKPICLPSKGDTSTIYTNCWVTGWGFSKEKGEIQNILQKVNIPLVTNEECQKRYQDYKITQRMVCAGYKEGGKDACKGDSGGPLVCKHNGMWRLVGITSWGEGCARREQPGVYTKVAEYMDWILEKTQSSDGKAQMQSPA
Chain of Acetylcholinesterase (P22303 32-614, species assumed): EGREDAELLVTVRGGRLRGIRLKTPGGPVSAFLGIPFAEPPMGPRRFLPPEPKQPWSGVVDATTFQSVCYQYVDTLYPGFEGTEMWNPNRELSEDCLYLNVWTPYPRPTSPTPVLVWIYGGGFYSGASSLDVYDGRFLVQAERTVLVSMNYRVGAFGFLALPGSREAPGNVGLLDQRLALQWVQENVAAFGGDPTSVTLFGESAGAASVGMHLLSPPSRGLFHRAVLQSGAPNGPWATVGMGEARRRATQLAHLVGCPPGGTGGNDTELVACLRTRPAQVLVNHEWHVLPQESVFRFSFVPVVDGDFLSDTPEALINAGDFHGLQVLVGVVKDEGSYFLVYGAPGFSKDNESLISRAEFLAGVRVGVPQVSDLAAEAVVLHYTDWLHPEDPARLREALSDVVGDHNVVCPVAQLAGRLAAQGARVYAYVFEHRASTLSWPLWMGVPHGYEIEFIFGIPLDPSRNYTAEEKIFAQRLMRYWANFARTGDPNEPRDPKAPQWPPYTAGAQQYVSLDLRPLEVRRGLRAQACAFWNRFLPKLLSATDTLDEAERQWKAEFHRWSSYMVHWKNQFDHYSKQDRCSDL
T5 sequence (P00742 41-179 limits assumed): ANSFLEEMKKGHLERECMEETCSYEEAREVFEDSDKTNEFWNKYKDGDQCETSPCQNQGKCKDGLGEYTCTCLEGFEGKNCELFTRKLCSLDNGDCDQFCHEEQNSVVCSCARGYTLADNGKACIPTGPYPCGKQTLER
T5 sequence (P00742 235-488 limits assumed): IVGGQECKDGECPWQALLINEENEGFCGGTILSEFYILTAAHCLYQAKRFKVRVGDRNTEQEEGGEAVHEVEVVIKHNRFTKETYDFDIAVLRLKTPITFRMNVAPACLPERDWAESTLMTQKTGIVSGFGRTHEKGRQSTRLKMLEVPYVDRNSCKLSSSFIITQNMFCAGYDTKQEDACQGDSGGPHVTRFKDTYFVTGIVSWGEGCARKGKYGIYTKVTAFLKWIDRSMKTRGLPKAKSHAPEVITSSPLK
T4 sequence (P08709 61-212 limits assumed): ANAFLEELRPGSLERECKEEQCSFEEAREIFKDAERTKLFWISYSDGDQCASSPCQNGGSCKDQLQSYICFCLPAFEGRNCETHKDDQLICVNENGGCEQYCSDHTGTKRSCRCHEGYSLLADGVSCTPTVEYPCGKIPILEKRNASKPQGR
T4 sequence (P08709 213-466 limits assumed): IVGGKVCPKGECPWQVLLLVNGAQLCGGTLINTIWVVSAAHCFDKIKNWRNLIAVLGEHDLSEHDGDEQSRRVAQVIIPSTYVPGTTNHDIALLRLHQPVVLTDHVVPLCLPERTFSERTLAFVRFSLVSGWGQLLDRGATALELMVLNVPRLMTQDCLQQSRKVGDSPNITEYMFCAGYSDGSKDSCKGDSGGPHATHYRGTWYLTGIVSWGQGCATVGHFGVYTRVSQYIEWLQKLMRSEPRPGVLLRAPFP
T4 sequence (P13726 33-251 partner limits assumed): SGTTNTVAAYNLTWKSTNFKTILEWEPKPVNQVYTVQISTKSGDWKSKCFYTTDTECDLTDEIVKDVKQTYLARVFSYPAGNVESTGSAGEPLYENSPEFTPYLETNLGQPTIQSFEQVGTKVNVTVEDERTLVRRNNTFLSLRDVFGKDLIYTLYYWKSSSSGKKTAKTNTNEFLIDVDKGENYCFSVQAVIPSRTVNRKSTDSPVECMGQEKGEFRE
Chain of Plasmin (P00747 581-810 limits assumed, species assumed): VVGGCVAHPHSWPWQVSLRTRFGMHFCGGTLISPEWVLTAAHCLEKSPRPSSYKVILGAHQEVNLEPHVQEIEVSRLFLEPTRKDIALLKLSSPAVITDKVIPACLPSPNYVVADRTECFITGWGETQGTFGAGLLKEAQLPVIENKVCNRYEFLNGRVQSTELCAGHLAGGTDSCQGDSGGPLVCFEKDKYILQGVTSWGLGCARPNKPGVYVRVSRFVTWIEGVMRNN
Chain of Plasmin (P00747 97-580 limits assumed, species assumed): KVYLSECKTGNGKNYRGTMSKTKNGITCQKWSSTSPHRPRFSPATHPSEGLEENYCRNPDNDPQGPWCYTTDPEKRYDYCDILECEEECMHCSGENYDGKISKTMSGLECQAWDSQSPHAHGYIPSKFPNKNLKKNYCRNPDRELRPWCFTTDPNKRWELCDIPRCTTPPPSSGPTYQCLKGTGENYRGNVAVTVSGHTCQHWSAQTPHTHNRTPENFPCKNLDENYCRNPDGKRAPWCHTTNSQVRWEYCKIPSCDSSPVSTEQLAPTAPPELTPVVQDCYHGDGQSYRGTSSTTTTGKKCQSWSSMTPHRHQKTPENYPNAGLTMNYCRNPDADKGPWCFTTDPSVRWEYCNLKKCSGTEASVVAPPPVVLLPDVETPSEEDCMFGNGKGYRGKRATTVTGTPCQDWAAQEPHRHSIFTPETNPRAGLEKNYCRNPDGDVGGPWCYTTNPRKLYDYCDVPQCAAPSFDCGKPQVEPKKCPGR
Chain of tPA (P00750 36-562, species assumed): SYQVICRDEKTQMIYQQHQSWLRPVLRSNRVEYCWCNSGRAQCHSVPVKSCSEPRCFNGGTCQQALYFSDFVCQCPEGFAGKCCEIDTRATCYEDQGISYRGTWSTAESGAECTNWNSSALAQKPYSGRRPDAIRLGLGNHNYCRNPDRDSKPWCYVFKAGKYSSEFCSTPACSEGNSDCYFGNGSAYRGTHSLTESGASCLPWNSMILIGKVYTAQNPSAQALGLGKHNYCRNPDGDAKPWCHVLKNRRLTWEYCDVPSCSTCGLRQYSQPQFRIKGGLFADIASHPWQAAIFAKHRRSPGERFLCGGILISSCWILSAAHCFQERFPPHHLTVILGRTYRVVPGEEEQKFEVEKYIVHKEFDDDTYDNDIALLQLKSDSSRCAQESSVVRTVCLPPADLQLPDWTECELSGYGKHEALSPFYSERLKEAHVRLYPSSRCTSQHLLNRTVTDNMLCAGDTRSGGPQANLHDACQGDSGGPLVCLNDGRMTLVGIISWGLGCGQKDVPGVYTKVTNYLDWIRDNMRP
Chain of XIA (Homo sapiens, UniProt P03951) (P03951 388-625 limits assumed): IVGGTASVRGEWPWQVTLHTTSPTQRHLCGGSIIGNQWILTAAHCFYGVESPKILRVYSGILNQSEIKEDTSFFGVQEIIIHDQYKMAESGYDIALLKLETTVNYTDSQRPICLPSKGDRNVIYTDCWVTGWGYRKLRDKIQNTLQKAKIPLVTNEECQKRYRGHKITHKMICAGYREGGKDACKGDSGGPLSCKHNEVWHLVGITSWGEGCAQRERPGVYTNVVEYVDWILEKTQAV
Chain of APC (Homo sapiens, UniProt P04070) (P04070 212-461 limits assumed): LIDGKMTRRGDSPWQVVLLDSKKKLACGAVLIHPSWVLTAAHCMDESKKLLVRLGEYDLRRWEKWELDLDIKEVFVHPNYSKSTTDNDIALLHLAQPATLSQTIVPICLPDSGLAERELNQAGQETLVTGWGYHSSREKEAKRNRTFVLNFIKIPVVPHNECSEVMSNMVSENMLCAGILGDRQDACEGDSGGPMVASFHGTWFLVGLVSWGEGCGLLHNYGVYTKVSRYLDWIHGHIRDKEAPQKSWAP

In general, solubility refers to the concentration that dissolves in the medium under given conditions. For `CCc1cc(C(Nc2ccc(/C(N)=N\OCc3ccc(OC)cc3)cc2)C(=O)NS(N)(=O)=O)cc2c(C)coc12` (stereo not shown) [Compound 26], the solubility in the series “Solubility in water” (pH 2) amounted to 115 µM (≈ 65 µg/mL); in “Solubility in water” (pH 6.5) it was 98 µM (≈ 55.4 µg/mL).

By Ki is commonly meant a dissociation constant, usually derived from enzyme kinetics or from competition with a known ligand. Take `CCc1cc(C(Nc2ccc(C(=N)N)cc2)C(=O)NS(N)(=O)=O)cc2c(C)coc12` (stereo not shown) [Compound 8]: the inhibitory constant (Ki) was 2.1 µM on Trypsin (Trypsin); over 6.9 µM on Chymotrypsin (Chymotrypsin); 6.4 µM at HGFA (HGFA); 0.83 µM at Thrombin (Thrombin); over 6.8 µM at Urokinase (Urokinase); over 8.7 µM on XIIA (XIIA). Also, the inhibition constant Ki is 0.004 µM at TFVIIa (TFVIIa); 1.44 µM at APC [1]; over 7.8 µM on tPA (tPA); over 7 µM on F. Xa (F. Xa); over 6.8 µM at Acetylcholinesterase; 0.88 µM at Plasmin (Plasmin). Also, the inhibition constant (Ki) at Complement CS1 (Complement CS1) is over 6.5 µM; on XIA [4], over 8 µM; at Plasma Kallikrein (Plasma Kallikrein) it was 0.082 µM. Besides, the Selectivity in the series with Trypsin (Trypsin relative to TFVIIa) is given as 525 X; in the series on Chymotrypsin (Chymotrypsin relative to TFVIIa), over 1725 X; on HGFA (HGFA relative to TFVIIa) it was 1600 X; on Thrombin (Thrombin relative to TFVIIa) it was 207 X; at Urokinase (Urokinase relative to TFVIIa), over 1700 X; at XIIA (XIIA relative to TFVIIa), over 2175 X. For the same compound, the Selectivity at TFVIIa (TFVIIa (reference)) is given as 1 X; in the series on APC [2], 360 X; at tPA (tPA relative to TFVIIa) it was over 1950 X; on F. Xa (F. Xa relative to TFVIIa) it was over 1750 X; at Acetylcholinesterase (Acetylcholinesterase relative to TFVIIa), 1700 X; at Plasmin (Plasmin relative to TFVIIa) it was 220 X. In addition, the results for the Selectivity at Complement CS1 (Complement CS1 relative to TFVIIa), with XIA [3] and at Plasma Kallikrein (Plasma Kallikrein relative to TFVIIa) were over 1625 X, over 2000 X and 20 X, respectively.

In general, half-life refers to how long it takes for the measured level to halve. As for `CCOc1cc(OCC)cc(C(Nc2ccc(C(=N)N)cc2)C(=O)NS(=O)(=O)CC)c1` (stereo not shown), in series [5], the clearance came to 8.6 mL/min/kg body weight. In series [5] (plasma), this compound displayed a half-life of 1.25 h.
